Measurements as given in US20100273787A1, “KYNURENINE-AMINOTRANSFERASE INHIBITORS” (priority 2007, published 2010).

Columns and labels:
[1] = tested on: KYNA production in rat brain tissue slices; assay: De novo production of KYNA in rat brain tissue slices; type: cell-based; settings: 6 hr at 37 degrees, FIG. 1
Protocol: The ability of Compound (A) to inhibit the de novo production of KYNA in rat brain tissue slices was also tested. A 2 μM concentration of Compound (A) was assayed as described by Gramsbergen J B, Hodgkins P S, Rassoulpour A, Turski W A, Guidetti P, Schwarcz R., (J. Neurochem., 69:290, 1997). Briefly, an aliquot of the original tissue homogenate was further diluted (1:5, v/v) in a buffer containing 5 mM Tris acetate (pH 8.0), 50 μM pyridoxal-5′-phosphate and 10 mM 2-mercapto-ethanol, and dialyzed overnight at 4 degrees. The reaction mixture containing 150 mM Tris-acetate buffer (pH 7.0), 2 μM L-kynurenine, 1 mM pyruvate, 80 μM pyridoxal-5′-phosphate and 80 μL dialysate in a total volume of […] was incubated w/wo Compound (A) for 6 hr at 37 degrees. The reaction was terminated by adding […] of 50% (w/v) trichloracetic acid and KYNA levels were measured using reverse-phase HPLC with fluorescence detection (excitation, 344 nm; emission, 398 nm).

[2] = biological target: Human recombinant KAT II protein (Homo sapiens, UniProt Q8N5Z0); assay: KAT II activity, human recombinant protein ([3H]-kynurenine to [3H]-KYNA); type: biochemical
Human recombinant KAT II protein, sequence (Q8N5Z0 30-425): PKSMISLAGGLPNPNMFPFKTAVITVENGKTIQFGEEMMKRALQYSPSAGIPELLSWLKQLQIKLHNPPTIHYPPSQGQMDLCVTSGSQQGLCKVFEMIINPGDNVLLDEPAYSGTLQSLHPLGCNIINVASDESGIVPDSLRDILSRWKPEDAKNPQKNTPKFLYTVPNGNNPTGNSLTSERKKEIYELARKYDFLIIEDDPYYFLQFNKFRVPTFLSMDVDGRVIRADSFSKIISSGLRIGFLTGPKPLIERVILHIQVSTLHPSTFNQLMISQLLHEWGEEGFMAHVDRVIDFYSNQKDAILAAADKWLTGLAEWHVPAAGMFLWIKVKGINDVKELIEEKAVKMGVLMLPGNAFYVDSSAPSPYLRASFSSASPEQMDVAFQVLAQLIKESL
Protocol: (§1) For the measurement of KAT II activity, 100 μl of partially purified rat liver enzyme were incubated (2 hrs, 37° C.) with 100 μl of 150 mM Tris-acetate (pH 7.0), 2 μM (2.5 nCi) [^3H]-kynurenine, 1 mM pyruvate and 80 μM pyridoxal-5′-phosphate. Blanks were obtained using denatured protein preparations. The reaction was terminated by the addition of […] of 30% (w/v) trichloroacetic acid. 1 ml of 0.1 M HCl was added, and the denatured protein was removed by centrifugation. 1 ml of the supernatant was applied to a Dowex 50 W H^+cation exchange column, which was then washed with 1 ml of 0.1 M HCl, followed by 1 ml of ultrapure water. [^3H]-KYNA was subsequently eluted with 2×1 ml of ultrapure water, and radioactivity was quantified by liquid scintillation spectrometry. Human recombinant KAT II protein was also used to measure KAT II activity as described above.
(§2) Test compounds were added in 20 μl aliquots at the beginning of the incubation period to examine interference with enzyme activity.

[3] = biological target: T1, KAT II (partially purified rat liver enzyme) (Rattus norvegicus, UniProt Q64602); assay: KAT II activity, partially purified rat liver enzyme ([3H]-kynurenine to [3H]-KYNA); type: biochemical
T1 construct: partially purified rat liver enzyme; from tissue; host or cells: rat liver
T1 sequence (Q64602 30-425): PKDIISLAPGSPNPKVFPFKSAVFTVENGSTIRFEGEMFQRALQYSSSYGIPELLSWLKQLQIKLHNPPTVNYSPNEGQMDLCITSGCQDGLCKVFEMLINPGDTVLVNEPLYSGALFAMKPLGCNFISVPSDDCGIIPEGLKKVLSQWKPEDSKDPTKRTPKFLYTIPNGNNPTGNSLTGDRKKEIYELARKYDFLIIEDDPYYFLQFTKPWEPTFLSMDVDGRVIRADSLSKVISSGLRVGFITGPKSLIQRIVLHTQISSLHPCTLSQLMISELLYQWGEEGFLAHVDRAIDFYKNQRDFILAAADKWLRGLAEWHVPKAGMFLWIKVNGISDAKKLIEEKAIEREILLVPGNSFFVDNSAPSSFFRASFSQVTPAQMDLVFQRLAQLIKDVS
Protocol: as §1, §2

Kynureninase = biological target: T2, Kynureninase (Rattus norvegicus, UniProt P70712); assay: Kynureninase activity in rat liver homogenate; type: biochemical
T2 construct: determined in rat liver homogenate; from tissue; host or cells: rat liver homogenate
T2 sequence (P70712 1-464): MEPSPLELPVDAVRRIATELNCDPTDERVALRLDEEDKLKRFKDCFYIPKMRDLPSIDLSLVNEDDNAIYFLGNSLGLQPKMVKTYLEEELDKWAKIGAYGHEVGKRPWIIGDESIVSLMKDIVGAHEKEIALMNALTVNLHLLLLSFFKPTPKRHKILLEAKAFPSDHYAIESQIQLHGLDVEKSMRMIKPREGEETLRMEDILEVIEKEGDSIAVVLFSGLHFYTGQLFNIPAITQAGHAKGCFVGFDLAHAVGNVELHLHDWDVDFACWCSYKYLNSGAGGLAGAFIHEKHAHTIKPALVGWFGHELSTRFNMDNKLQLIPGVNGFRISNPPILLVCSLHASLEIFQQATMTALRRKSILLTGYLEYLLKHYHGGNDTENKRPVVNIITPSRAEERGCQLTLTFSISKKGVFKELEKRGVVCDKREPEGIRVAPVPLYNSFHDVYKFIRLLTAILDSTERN
Protocol: (§3) Kynurenine 3-hydroxylase and kynureninase activities were determined in rat liver homogenate according to established procedures (see Anal. Biochem., 205:257-62, 1992 and Neuroscience., 61:237-43, 1994 for methodology).

[4] = tested on: extracellular kynurenic acid (KYNA) and dopamine (DA) levels in prefrontal cortex; assay: In vivo reverse dialysis / microdialysis in rat prefrontal cortex; settings: 1 mM into prefrontal cortex for 2 hours by reverse dialysis, FIG. 2
Protocol: Microdialysis was performed in the prefrontal cortex of unanesthetized male rats (200-220 g) according to established procedures (see Eur. J. Neurosci., 4:1264-70, 1992 for methodology).
Compound (A) was also tested in the rat brain in vivo. Briefly, a concentration of 1 mM Compound (A) was introduced into the prefrontal cortex for 2 hours by reverse dialysis. A detailed description of this method can be found in J Neurosci Res 85(4):845-54, 2007 (Ceresoli-Borroni G, Guidetti P, Amori L, Pellicciari R, Schwarcz R).

Kynurenine 3-hydroxylase = biological target: T3, Kynurenine 3-hydroxylase (Rattus norvegicus, UniProt O88867); assay: Kynurenine 3-hydroxylase activity in rat liver homogenate; type: biochemical
T3 construct: determined in rat liver homogenate; from tissue; host or cells: rat liver homogenate
T3 sequence (O88867 whole entry): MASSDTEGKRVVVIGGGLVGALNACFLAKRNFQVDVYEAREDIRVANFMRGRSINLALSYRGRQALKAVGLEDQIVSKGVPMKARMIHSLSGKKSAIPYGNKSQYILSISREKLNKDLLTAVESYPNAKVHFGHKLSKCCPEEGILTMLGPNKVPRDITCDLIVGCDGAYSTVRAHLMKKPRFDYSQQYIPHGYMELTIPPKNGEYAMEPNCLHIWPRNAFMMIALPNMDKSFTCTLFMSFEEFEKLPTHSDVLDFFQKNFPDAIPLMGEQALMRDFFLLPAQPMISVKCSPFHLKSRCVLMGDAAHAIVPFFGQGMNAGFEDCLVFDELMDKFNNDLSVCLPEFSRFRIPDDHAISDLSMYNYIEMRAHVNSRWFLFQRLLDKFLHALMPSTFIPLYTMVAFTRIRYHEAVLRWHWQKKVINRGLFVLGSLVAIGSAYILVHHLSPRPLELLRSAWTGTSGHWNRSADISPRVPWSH
Protocol: as §3

C[C@H]1COc2c(N3CCN(N)CC3)c(F)cc3c(=O)c(C(=O)O)cn1c23.O=C(O)C(F)(F)F [Compound (A), (S)-(−)-9-(4-Aminopiperazin-1-yl)-8-fluoro-3-methyl-6-oxo-2,3-dihydro-6H-1-oxa-3a-aza-phenalene-5-carboxylic acid trifluoroacetate]
inhibition of de novo production of KYNA from L-kynurenine [1]: dose-dependently inhibit | IC50 ([2]; human recombinant protein): 0.2 µM | times more active against human KAT II than against rat KAT II ([2]; human vs rat KAT II): 10 times | times more active than UPF 874 as a KAT II inhibitor in humans ([2]; relative to UPF 874): 3000 times | IC50 [3]: 2 µM | IC50 (Kynureninase): > 2000 µM | increase of extracellular dopamine (DA) levels [4]: > 2.5 fold | reduction of extracellular kynurenic acid (KYNA) levels [4]: ~40% | IC50 (Kynurenine 3-hydroxylase): > 1000 µM
